Like-named read-outs stand apart in the source and are kept apart here.
Legend:
hSCN9A = molecular target: T1, hSCN9A (Homo sapiens, UniProt Q15858); test: Whole-cell patch-clamp electrophysiology (conventional or PatchXpress), HEK cells expressing hSCN9A, estimated IC-50; type: cell-based; details: read-out: SCN9A EIC-50
T1 construct: expressed in transfected cells
Procedure, shortened: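 Current through each channel was evoked by a 20 ms step to 0 mV following an 8 s conditioning prepulse at the cell's own half-inactivation voltage. Recordings used HEK lines stably expressing the channel, conventional or PatchXpress patch clamp, room temperature, pH 7.4 bath; inhibition taken as pre/post-compound amplitude change.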

hSCN3A = molecular target: T2, hSCN3A (Homo sapiens, UniProt Q9NY46); test: Whole-cell patch-clamp electrophysiology (conventional or PatchXpress), HEK cells expressing hSCN3A, estimated IC-50; type: cell-based; details: read-out: SCN3A EIC-50
T2 construct: expressed in transfected cells
T2 sequence (Q9NY46 whole entry): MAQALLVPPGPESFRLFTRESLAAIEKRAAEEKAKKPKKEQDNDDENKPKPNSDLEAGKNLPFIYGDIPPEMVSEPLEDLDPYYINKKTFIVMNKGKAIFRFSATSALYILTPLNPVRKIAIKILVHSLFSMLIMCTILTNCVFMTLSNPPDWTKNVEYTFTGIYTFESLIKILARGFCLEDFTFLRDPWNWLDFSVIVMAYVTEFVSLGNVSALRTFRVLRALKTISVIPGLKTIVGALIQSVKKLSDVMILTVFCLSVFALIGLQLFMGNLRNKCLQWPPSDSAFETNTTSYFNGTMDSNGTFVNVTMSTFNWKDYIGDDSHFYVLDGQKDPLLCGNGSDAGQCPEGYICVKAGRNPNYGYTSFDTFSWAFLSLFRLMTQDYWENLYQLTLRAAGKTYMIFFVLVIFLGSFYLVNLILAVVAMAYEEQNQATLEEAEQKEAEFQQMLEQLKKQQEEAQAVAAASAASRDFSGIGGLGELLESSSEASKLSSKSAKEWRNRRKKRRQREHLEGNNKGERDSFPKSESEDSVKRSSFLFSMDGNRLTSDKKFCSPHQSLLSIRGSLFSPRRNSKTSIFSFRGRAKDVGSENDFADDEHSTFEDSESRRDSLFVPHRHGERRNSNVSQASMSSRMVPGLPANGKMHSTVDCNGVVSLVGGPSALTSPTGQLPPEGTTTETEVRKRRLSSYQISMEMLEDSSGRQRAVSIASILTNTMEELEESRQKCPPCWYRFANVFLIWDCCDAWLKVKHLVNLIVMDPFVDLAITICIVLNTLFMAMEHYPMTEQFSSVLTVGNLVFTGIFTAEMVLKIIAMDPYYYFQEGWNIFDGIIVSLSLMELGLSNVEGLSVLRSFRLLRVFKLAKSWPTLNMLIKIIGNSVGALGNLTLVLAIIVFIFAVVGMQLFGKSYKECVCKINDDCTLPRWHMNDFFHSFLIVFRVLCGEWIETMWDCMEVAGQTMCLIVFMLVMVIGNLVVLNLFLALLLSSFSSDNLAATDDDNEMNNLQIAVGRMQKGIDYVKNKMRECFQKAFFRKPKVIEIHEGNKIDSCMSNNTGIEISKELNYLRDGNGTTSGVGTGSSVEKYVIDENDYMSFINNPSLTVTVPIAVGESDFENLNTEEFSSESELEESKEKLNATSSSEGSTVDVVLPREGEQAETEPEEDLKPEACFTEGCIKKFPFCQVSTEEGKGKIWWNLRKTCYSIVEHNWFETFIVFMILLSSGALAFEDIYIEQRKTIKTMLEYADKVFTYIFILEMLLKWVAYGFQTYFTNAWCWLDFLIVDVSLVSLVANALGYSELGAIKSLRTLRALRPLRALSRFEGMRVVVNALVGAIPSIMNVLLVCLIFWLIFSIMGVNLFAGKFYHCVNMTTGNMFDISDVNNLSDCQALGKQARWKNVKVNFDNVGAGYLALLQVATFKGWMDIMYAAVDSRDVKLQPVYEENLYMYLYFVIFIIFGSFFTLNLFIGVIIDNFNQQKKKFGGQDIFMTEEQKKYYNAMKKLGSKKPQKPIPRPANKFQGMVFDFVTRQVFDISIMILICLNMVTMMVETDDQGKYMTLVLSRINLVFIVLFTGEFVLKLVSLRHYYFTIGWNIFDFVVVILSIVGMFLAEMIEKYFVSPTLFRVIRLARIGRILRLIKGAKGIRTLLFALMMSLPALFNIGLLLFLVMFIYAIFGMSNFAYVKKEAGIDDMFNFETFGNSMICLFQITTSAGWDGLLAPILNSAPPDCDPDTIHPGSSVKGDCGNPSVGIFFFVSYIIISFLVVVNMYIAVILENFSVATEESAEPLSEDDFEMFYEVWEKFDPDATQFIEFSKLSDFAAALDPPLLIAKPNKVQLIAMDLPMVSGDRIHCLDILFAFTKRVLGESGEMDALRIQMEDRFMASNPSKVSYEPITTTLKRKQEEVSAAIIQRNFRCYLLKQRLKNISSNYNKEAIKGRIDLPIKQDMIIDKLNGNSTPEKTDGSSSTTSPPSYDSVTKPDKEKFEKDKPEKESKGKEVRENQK
Experimental: Human Embryonic Kidney (HEK) cells were transfected with hSCN3A or hSCN9A constructs using lipofectamine reagent (Invitrogen), using standard techniques. Cells stably expressing the hSCN3A or hSCN9A constructs were identified by their resistance to G-418 (400 μg/ml). Clones were screened for expression using the whole-cell voltage-clamp technique. HEK cells stably transfected with hSCN3A or hSCN9A were maintained in DMEM medium supplemented with 10% heat-inactivated fetal bovine serum and 400 μg/ml G418 sulfate in an incubator at 37° C. with a humidified atmosphere of 10% CO2. For HTS, cells were harvested from flasks by trypsinization and replated in an appropriate multi-well plate (typically 96 or 384 wells/plate) such that confluence would be achieved within 24 hours of plating. For electrophysiological studies, cells were removed from the culture flask by brief trypsinization and replated at low density onto glass cover slips. Cells were typically used for electrophysiological experiments within 24 to 72 h after plating. Cover slips containing HEK cells expressing hSCN3A or hSCN9A were placed in a bath on the stage of an inverted microscope and perfused (approximately 1 ml/min) with extracellular solution of the following composition: 138 mM NaCl, 2 mM CaCl2, 5.4 mM KCl, 1 mM MgCl2, 10 mM glucose, and 10 mM HEPES, pH 7.4, with NaOH. […] All recordings were made at room temperature (22-24° C.) using AXOPATCH 200B amplifiers and PCLAMP software (Axon Instruments, Burlingame, Calif.) or PatchXpress 7000 hardware and associated software (Axon Instruments, Burlingame, Calif.). hSCN3A or hSCN9A currents in HEK cells were measured using the whole-cell configuration of the patch-clamp technique (Hamill et al., 1981). […] As a result, voltage errors were negligible and no correction was applied. Current records were acquired at 20 to 50 KHz and filtered at 5 to 10 KHz. HEK cells stably transfected with hSCN3A or hSCN9A were viewed under Hoffman contrast optics and placed in front of an array of flow pipes emitting either control or compound-containing extracellular solutions. All compounds were dissolved in dimethyl sulfoxide to make 10 mM stock solutions, which were then diluted into extracellular solution to attain the final concentrations desired. […] The voltage-dependence of inactivation was determined by applying a series of depolarizing prepulses (8 sec long in 10 mV increments) from a negative holding potential. The voltage was then immediately stepped to 0 mV to assess the magnitude of the sodium current. Currents elicited at 0 mV were plotted as a function of prepulse potential to allow estimation of the voltage midpoint of inactivation (V1/2). Cells were then voltage clamped at the empirically determined V1/2. Compounds were tested for their ability to inhibit hSCN3A or hSCN9A sodium channels by activating the channel with a 20 msec voltage step to 0 mV following an 8 second conditioning prepulse to the empirically determined V1-2 (Table B). Compound effect (% inhibition) was determined by difference in current amplitude before and after application of test compounds. […] In some cases electrophysiological assays were conducted with PatchXpress 7000 hardware and associated software (Molecular Devices Corp) (Table B). All assay buffers and solutions were identical to those used in conventional whole-cell voltage clamp experiments described above. hSCN3A or hSCN9A containing cells were grown as above to 50%-80% confluency and harvested by trypsinization. Trypsinized cells were washed and resuspended in extracellular buffer at a concentration of 1×10^6 cells/ml. The onboard liquid handling facility of the PatchXpress was used for dispensing cells and application of test compounds. Determination of the voltage midpoint of inactivation was as described for conventional whole-cell recordings. Cells were then voltage-clamped to the empirically determined V1/2 and current was activated by a 20 msec voltage step to 0 mV.

[1] = Table V, estimated IC-50 from single point electrophysiology, cells clamped at V1/2
[2] = estimated IC-50, HEK cells expressing hSCN9A, class symbols or bounds
[3] = estimated IC-50, HEK cells expressing hSCN3A, class symbols or bounds

T1 sequence (Q15858 whole entry): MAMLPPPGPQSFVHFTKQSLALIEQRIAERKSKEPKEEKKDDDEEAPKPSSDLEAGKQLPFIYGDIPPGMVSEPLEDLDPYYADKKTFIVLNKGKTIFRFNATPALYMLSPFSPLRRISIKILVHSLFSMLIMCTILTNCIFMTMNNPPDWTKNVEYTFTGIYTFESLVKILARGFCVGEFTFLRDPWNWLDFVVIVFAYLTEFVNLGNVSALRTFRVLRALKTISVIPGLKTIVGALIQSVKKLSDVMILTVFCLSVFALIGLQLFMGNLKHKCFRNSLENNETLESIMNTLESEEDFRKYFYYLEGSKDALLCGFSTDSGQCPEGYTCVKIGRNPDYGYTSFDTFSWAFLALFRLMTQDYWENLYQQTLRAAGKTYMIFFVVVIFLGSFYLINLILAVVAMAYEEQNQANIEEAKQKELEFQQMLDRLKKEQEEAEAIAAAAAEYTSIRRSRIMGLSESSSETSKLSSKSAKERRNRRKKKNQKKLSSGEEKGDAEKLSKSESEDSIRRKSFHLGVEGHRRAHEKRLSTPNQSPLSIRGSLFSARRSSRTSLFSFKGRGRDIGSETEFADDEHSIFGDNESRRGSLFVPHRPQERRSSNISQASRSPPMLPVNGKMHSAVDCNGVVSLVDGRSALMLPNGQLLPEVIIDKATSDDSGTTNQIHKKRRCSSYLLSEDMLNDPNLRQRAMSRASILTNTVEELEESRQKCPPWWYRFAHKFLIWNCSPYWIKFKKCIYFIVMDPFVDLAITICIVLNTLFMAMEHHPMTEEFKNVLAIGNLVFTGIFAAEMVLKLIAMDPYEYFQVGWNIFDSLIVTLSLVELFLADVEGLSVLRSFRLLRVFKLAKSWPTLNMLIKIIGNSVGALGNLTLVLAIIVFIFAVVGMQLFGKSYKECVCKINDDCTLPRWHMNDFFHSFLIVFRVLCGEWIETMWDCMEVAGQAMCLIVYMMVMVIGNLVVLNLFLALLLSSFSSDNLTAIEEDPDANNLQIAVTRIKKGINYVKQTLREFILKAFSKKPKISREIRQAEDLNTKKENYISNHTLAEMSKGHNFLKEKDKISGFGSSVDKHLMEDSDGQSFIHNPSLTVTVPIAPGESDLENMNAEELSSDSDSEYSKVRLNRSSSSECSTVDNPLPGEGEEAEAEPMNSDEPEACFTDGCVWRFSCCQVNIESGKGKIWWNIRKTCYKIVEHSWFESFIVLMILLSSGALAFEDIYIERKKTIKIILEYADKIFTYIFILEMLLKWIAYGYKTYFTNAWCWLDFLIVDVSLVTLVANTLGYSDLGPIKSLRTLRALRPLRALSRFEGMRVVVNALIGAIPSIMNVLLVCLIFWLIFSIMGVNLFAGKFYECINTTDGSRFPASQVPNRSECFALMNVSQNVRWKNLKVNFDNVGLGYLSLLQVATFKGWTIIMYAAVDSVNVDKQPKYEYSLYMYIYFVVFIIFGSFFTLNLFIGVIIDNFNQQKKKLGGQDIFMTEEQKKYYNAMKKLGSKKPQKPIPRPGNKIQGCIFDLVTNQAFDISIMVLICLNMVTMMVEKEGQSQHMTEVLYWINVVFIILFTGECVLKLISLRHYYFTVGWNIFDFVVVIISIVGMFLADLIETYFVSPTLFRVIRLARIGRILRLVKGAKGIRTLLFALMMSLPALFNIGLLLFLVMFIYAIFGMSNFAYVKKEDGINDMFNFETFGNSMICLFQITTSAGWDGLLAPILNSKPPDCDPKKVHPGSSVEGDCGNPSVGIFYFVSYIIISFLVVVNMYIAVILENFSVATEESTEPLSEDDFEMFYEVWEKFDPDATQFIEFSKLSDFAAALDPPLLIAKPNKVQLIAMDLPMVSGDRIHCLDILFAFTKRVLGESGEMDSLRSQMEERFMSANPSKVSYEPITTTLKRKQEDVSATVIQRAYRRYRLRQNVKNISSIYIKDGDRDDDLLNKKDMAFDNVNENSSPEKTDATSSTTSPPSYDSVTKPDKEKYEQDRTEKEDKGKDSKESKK

Structure (SMILES) | IC50 (hSCN9A; [2]) [nM] | also measured
CC(C)(C)c1csc(Nc2ccc(S(=O)(=O)Nc3nccs3)c(OC(F)(F)F)c2)n1 [Compound 11, 4-(4-tert-Butyl-thiazol-2-ylamino)-N-thiazol-2-yl-2-trifluoromethoxy-benzenesulfonamide] | – | IC50 (hSCN9A; [1]): 2000 to 10000 nM; IC50 (hSCN3A; [1]): 2000 to 10000 nM
O=S(=O)(Nc1nccs1)c1ccc(Nc2nccc(OCC(c3ccccc3)c3ccccc3)n2)cc1 [Compound 46, 4-(4-(2,2-diphenylethoxy)pyrimidin-2-ylamino)-N-(thiazol-2-yl)benzenesulfonamide] | > 10000 | IC50 (hSCN3A; [3]): < 2000 nM
Cc1ccc(-n2nc(C)cc2Nc2ccc(S(=O)(=O)Nc3nccs3)c(F)c2)cc1 [Compound 147, 2-fluoro-4-(3-methyl-1-p-tolyl-1H-pyrazol-5-ylamino)-N-(thiazol-2-yl)benzenesulfonamide] | < 2000 | IC50 (hSCN3A; [3]): < 2000 nM
Cn1nc(Cc2ccc(Cl)cc2)cc1Nc1ccc(S(=O)(=O)Nc2nccs2)cc1 [Compound 21, 4-(3-(4-Chlorobenzyl)-1-methyl-1H-pyrazol-5-ylamino)-N-(thiazol-2-yl)benzenesulfonamide] | – | IC50 (hSCN9A; [1]): < 2000 nM; IC50 (hSCN3A; [1]): < 2000 nM
COc1ccc(Cc2csc(Nc3ccc(S(=O)(=O)Nc4nccs4)c(F)c3)n2)cc1 [Compound 3, 2-Fluoro-4-[4-(4-methoxy-benzyl)-thiazol-2-ylamino]-N-thiazol-2-yl-benzenesulfonamide] | – | IC50 (hSCN9A; [1]): > 10000 nM; IC50 (hSCN3A; [1]): < 2000 nM
O=S(=O)(Nc1nccs1)c1ccc(Nc2cccc(C(c3ccccc3)c3ccccc3)n2)cc1 [Compound 93, 4-(6-benzhydrylpyridin-2-ylamino)-N-(thiazol-2-yl)benzenesulfonamide] | > 1000 | IC50 (hSCN3A; [3]): < 2000 nM
Cc1cc(NS(=O)(=O)c2ccc(Nc3ccnc(OCc4ccc(C(F)(F)F)cc4)n3)cc2)no1 [Compound 88, N-(5-methylisoxazol-3-yl)-4-(2-(4-(trifluoromethyl)benzyloxy)pyrimidin-4-ylamino)benzenesulfonamide] | – | IC50 (hSCN3A; [3]): 2000 to 10000 nM
Cc1cc(NS(=O)(=O)c2ccc(Nc3nccc(OCc4ccc(C(F)(F)F)cc4)n3)cc2)no1 [Compound 87, N-(5-methylisoxazol-3-yl)-4-(4-(4-(trifluoromethyl)benzyloxy)pyrimidin-2-ylamino)benzenesulfonamide] | – | IC50 (hSCN3A; [3]): > 1000 nM
COc1ccnc(Nc2ccc(S(=O)(=O)Nc3cc(C)on3)cc2)n1 [Compound 86, 4-(4-methoxypyrimidin-2-ylamino)-N-(5-methylisoxazol-3-yl)benzenesulfonamide] | – | IC50 (hSCN3A; [3]): > 1000 nM
COc1ccc(Cc2cc(Nc3ccc(S(=O)(=O)Nc4nccs4)cc3)n(C)n2)cc1 [Compound 126, 4-(3-(4-methoxybenzyl)-1-methyl-1H-pyrazol-5-ylamino)-N-(thiazol-2-yl)benzenesulfonamide] | > 1000 | –
Cn1nc(Cc2ccc(F)cc2F)cc1Nc1ccc(S(=O)(=O)Nc2nccs2)cc1 [Compound 139, 4-(3-(2,4-difluorobenzyl)-1-methyl-1H-pyrazol-5-ylamino)-N-(thiazol-2-yl)benzenesulfonamide] | < 2000 | –
O=S(=O)(Nc1nccs1)c1ccc(Nc2nc3ccccc3s2)cc1 [Compound 117, 4-(benzo[d]thiazol-2-ylamino)-N-(thiazol-2-yl)benzenesulfonamide] | > 1000 | –
O=S(=O)(Nc1nccs1)c1ccc(Nc2nc(CCCCl)cs2)cc1 [Compound 59, 4-(4-(3-chloropropyl)thiazol-2-ylamino)-N-(thiazol-2-yl)benzenesulfonamide] | – | IC50 (hSCN3A; [3]): < 2000 nM

Further lines, with some results ahead:

IC50 (hSCN9A; [2]) [nM] | Structure (SMILES) | also measured
< 2000 | Cn1nc(Cc2cccc(Cl)c2)cc1Nc1ccc(S(=O)(=O)Nc2nccs2)cc1 [Compound 218, 4-(3-(3-chlorobenzyl)-1-methyl-1H-pyrazol-5-ylamino)-N-(thiazol-2-yl)benzenesulfonamide] | –
< 2000 | Cc1cc(Nc2ccc(S(=O)(=O)Nc3nccs3)c(F)c2)n(-c2cccc(C(F)(F)F)c2)n1 [Compound 181, 2-fluoro-4-(3-methyl-1-(3-(trifluoromethyl)phenyl)-1H-pyrazol-5-ylamino)-N-(thiazol-2-yl)benzenesulfonamide] | –
< 2000 | O=S(=O)(Nc1nccs1)c1ccc(Nc2ccnn2-c2ccccc2)cc1F [Compound 168, 2-fluoro-4-(1-phenyl-1H-pyrazol-5-ylamino)-N-(thiazol-2-yl)benzenesulfonamide] | –
< 2000 | O=S(=O)(Nc1nccs1)c1ccc(Nc2c3c(nn2-c2ccccc2)CCC3)cc1F [Compound 174, 2-fluoro-4-(2-phenyl-2,4,5,6-tetrahydrocyclopenta[c]pyrazol-3-ylamino)-N-(thiazol-2-yl)benzenesulfonamide] | –
< 2000 | COc1ccc(Cn2ccc(Nc3ccc(S(=O)(=O)Nc4nccs4)c(F)c3)n2)cc1 [Compound 224, 2-fluoro-4-(1-(4-methoxybenzyl)-1H-pyrazol-3-ylamino)-N-(thiazol-2-yl)benzenesulfonamide] | –
2000 to 10000 | O=S(=O)(Nc1nccs1)c1ccc(Nc2ccn(Cc3ccc(Cl)cc3)n2)cc1C(F)(F)F [Compound 212, 4-(1-(4-chlorobenzyl)-1H-pyrazol-3-ylamino)-N-(thiazol-2-yl)-2-(trifluoromethyl)benzenesulfonamide] | –
> 1000 | Cc1cc(Nc2ccc(S(=O)(=O)Nc3nccs3)c(C(F)(F)F)c2)n(-c2ccccc2)n1 [Compound 272, 4-(3-methyl-1-phenyl-1H-pyrazol-5-ylamino)-N-(thiazol-2-yl)-2-(trifluoromethyl)benzenesulfonamide] | –
< 2000 | Cc1ccc(Cc2cc(Nc3ccc(S(=O)(=O)Nc4nccs4)c(F)c3)[nH]n2)cc1 [Compound 165, 2-fluoro-4-(3-(4-methylbenzyl)-1H-pyrazol-5-ylamino)-N-(thiazol-2-yl)benzenesulfonamide] | –
2000 to 10000 | Cc1cc(Nc2ccc(S(=O)(=O)Nc3ncc(C)s3)c(F)c2)n(-c2ccccc2)n1 [Compound 239, 2-fluoro-4-(3-methyl-1-phenyl-1H-pyrazol-5-ylamino)-N-(5-methylthiazol-2-yl)benzenesulfonamide] | –
2000 to 10000 | CC(C)(C)n1nc(Cc2cccc(Cl)c2)cc1Nc1ccc(S(=O)(=O)Nc2nccs2)cc1 [Compound 194, 4-(1-tert-butyl-3-(3-chlorobenzyl)-1H-pyrazol-5-ylamino)-N-(thiazol-2-yl)benzenesulfonamide] | –
< 2000 | Cc1cc(Nc2ccc(S(=O)(=O)Nc3nccs3)c(F)c2)n(C(C)C2CC2)n1 (centres unmarked) [Compound 175, 4-(1-(1-cyclopropylethyl)-3-methyl-1H-pyrazol-5-ylamino)-2-fluoro-N-(thiazol-2-yl)benzenesulfonamide] | –
> 1000 | CCc1nnc(NS(=O)(=O)c2ccc(Nc3cc(C)nn3-c3ccccc3)cc2F)s1 [Compound 246, N-(5-ethyl-1,3,4-thiadiazol-2-yl)-2-fluoro-4-(3-methyl-1-phenyl-1H-pyrazol-5-ylamino)benzenesulfonamide] | –
2000 to 10000 | Cn1ncc(-c2ccccc2)c1Nc1ccc(S(=O)(=O)Nc2nccs2)c(F)c1 [Compound 148, 2-fluoro-4-(1-methyl-4-phenyl-1H-pyrazol-5-ylamino)-N-(thiazol-2-yl)benzenesulfonamide] | –

Reference: patent US8124610B2, “Sodium channel inhibitors” (Icagen Inc., priority 2007, dated 2012)
